Data set [1] concerns nicotine dependent rats. The experiment in a line: mecamylamine-precipitated nicotine abstinence signs in nicotine dependent rats. In kind it is in vivo, Sprague-Dawley rats. Particulars: 1 mg/kg subcutaneous; 30 minutes; FIG. 2. On the procedure:
A study was conducted to compare the effects of low doses of dextromethorphan (1 mg/kg) alone, cotinine (1 mg/kg) alone, and a dextromethorphan plus cotinine combination (1 mg/kg each) versus placebo (saline) for their effect on nicotine dependence. The subjects were 30 male Sprague-Dawley rats, weighing between 282-372 grams each. All subjects were implanted subcutaneously with an Alza 2ML1 osmotic minipump under aseptic conditions and halothane anesthesia.
All subjects were rendered nicotine dependent by seven days infusion with 9 mg/kg/day nicotine bitartrate (3.15 mg/kg expressed as the base) in saline from the subcutaneous minipump. On the 7th day of infusion, each subject received two subcutaneous injections. Group 1 (n=8) received two injections of saline vehicle only. Group 2 (n=7) received a subcutaneous injection of saline and an subcutaneous injection of 1 mg/kg cotinine in saline. Group 3 (n=8) received a subcutaneous injection of saline and a subcutaneous injection of 1 mg/kg dextromethorphan. Group 4 (n=7) received a subcutaneous injection of 1 mg/kg cotinine and 1 mg/kg dextromethorphan. […] These low doses were intended to prevent any ceiling effect which may have masked the benefit of adding a second medication. The injection volumes in every case were […]. […]

Data set [2] relates to mecamylamine-precipitated nicotine withdrawal syndrome. The experiment in a line: previous study of mecamylamine-precipitated nicotine withdrawal syndrome. It is filed as in vivo. The note with it: dose 1 mg/kg, given alone. On the procedure: All subjects were rendered nicotine dependent by seven days infusion with 9 mg/kg/day nicotine bitartrate (3.15 mg/kg expressed as the base) in saline from the subcutaneous minipump. On the 7th day of infusion, each subject received two subcutaneous injections. Group 1 (n=8) received two injections of saline vehicle only. Group 2 (n=7) received a subcutaneous injection of saline and an subcutaneous injection of 1 mg/kg cotinine in saline. Group 3 (n=8) received a subcutaneous injection of saline and a subcutaneous injection of 1 mg/kg dextromethorphan. Group 4 (n=7) received a subcutaneous injection of 1 mg/kg cotinine and 1 mg/kg dextromethorphan. […] These low doses were intended to prevent any ceiling effect which may have masked the benefit of adding a second medication. The injection volumes in every case were 1 mg/kg.

The conditions of data set [3]: rat brain after peripheral nicotine administration; Dwoskin et al 1999; cited from earlier work.
The conditions of data set [4]: humans; estimated by Benowitz 1983; cited from earlier work.

In the case of `CN1C(=O)CC[C@H]1c1cccnc1` [cotinine], in data set [1], the “Miscellaneous Less-Frequent Signs (category of nicotine abstinence signs)” value was “tied for lowest”. Besides, in data set [2], the “effects in reducing mecamylamine-precipitated nicotine withdrawal syndrome” value is “only minimal effects”. Further, the “abundance as nicotine metabolite in brain” value in data set [3] is “most abundant metabolite in rat brain”.
Turning to `CN1CCCC1c1cccnc1` (centres unmarked) [nicotine], in data set [4], the “systemically absorbed nicotine metabolized to cotinine” value is on record as 86%.
In the case of `COc1ccc2c(c1)[C@]13CCCC[C@@H]1[C@H](C2)N(C)CC3` [dextromethorphan, reference compound], in data set [2], the “effects in reducing mecamylamine-precipitated nicotine withdrawal syndrome” value was “only minimal effects”.

The values above are taken from patent publication US20100040679A1, “Compositions for Reducing Nicotine Withdrawal Symptoms and/or Tobacco Usage” (priority 2006, published 2010).
